pEC50: −log10 of the molar value. Numbered stars: 1 amine (or outer) side, 2 acyl side, 3 side chain; on linkers, the order of the positions; unused ones are H or OH. Bridge positions count the residues as written; N and C are the ends. Square brackets hold non-standard residues; d marks the D form. Side chains are listed from the residue outwards. Peptide text beside a SMILES is read from it. * marks the point of attachment. C20 diacid = O=C(O)CCCCCCCCCCCCCCCCCCC(=O)*; γGlu = O=C(O)[C@H](CCC(=O)[*:2])N[*:1]; Orn = NCCC[C@H](N)C(=O)O; AEEA = NCCOCCOCC(=O)O

In one data set the target is T1, human amylin receptor (Homo sapiens, UniProt O60896+P30988).
T1 construct: host or cells: CHO-K1/Ga15/AMY3 cells, further stably transfected with a CRE-luciferase plasmid
T1 sequence (P30988 25-474): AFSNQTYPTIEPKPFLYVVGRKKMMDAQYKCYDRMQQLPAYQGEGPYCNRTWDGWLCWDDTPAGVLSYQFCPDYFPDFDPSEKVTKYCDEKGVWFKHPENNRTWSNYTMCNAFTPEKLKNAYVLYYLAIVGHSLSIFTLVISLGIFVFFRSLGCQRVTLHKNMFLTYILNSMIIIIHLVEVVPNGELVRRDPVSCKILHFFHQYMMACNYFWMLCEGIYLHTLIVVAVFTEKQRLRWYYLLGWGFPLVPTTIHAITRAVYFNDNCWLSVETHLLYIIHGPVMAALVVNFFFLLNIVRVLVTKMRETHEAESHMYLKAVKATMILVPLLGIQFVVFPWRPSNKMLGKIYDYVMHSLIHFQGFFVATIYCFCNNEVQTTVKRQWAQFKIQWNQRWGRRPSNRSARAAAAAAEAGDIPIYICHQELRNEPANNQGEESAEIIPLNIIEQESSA
T1 sequence (O60896 24-148 partner): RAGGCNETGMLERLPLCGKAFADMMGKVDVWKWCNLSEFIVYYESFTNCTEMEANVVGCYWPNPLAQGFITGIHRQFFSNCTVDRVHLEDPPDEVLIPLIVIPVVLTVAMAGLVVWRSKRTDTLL
The data set can be described thus: Luciferase assay of amylin derivatives in amylin receptor/CRE-luc CHO cell line. The format is cell-based. To be noted: CHO-K1/Ga15/AMY3 CRE-luc cells, 24 hours incubation, F12 medium containing 10% FBS; read-out: EC50.

A short description of data set [1]: Freeze-thaw stability of derivatives (freeze-thaw yield by liquid chromatography). The format is physicochemical. Conditions: for Dissolution property: appearance after dissolution at 0.2 mg/ml in 20 mM phosphate buffer solution (PB) (pH 7.0); for Freeze storage property: appearance after overnight storage at −20° C. and thawing to room temperature, 0.2 mg/ml in 20 mM PB (pH 7.0); for Freeze storage yield: concentration of polypeptide after freezing and thawing / concentration before, by liquid chromatography, −20° C. overnight. In outline: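 Lyophilised peptide derivative dissolved at 0.2 mg/ml in 20 mM phosphate buffer, pH 7.0, frozen overnight at −20° C, then thawed at room temperature. Peptide concentration before and after freeze-thaw measured by reversed-phase HPLC on centrifuged supernatant; yield = post-thaw/pre-thaw concentration.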

Experimental for human amylin receptor: The experiment was intended to detect the activity or efficacy of the amylin derivatives on a human amylin receptor in vitro by luciferase assay.
50 μL of growth medium (F12 medium containing 10% FBS) was added into each well of a white 96-well plate, and the stably transfected amylin/CRE-lue CHO cells were inoculated into the white 96-well plate at a density of about 20,000 cells/well for activity determination.

In the case of `CC[C@H](C)[C@H](NC(=O)[C@@H]1CCCN1C(=O)[C@H](CCCCNC(=O)CC[C@H](NC(=O)CCCCCCCCCCCCCCCCCCC(=O)O)C(=O)O)NC(=O)[C@H](CC(C)C)NC(=O)[C@H](CC(N)=O)NC(=O)[C@H](CC(N)=O)NC(=O)[C@H](CO)NC(=O)[C@H](CO)NC(=O)[C@H](Cc1c[nH]cn1)NC(=O)[C@H](CCCNC(=N)N)NC(=O)[C@H](CC(C)C)NC(=O)[C@H](Cc1ccccc1)NC(=O)[C@H](CCC(=O)O)NC(=O)[C@H](C)NC(=O)[C@H](CC(C)C)NC(=O)[C@H](CCCNC(=N)N)NC(=O)[C@H](CCC(N)=O)NC(=O)[C@@H](NC(=O)[C@H](C)NC(=O)[C@@H]1CSSC[C@H](NC(=O)[C@@H](N)CCCNC(=N)N)C(=O)N[C@@H](CC(N)=O)C(=O)N[C@@H]([C@@H](C)O)C(=O)N[C@@H](C)C(=O)N[C@@H]([C@@H](C)O)C(=O)N1)[C@@H](C)O)C(=O)N[C@@H](CC(C)C)C(=O)N1CCC[C@H]1C(=O)N1CCC[C@H]1C(=O)N[C@H](C(=O)N[C@@H](CC(N)=O)C(=O)N[C@H](C(=O)NCC(=O)N[C@@H](CO)C(=O)N[C@@H](CC(N)=O)C(=O)N[C@H](C(=O)N1CCC[C@H]1C(N)=O)[C@@H](C)O)C(C)C)[C@@H](C)O` [PD009] (H-RCNTATCATQRLAEFLRHSSNNLK([γGlu-C20 diacid])PILPPTNVGSNTP-NH2; disulfide 2-7 (inferred)), the pEC50 at human amylin receptor is 10.17. Besides, in data set [1], the Dissolution property result is listed as “Clear” and the Freeze storage property entry is listed as “Clear”.
Consider `CC[C@H](C)[C@H](NC(=O)[C@@H]1CCCN1C(=O)[C@H](CCCCNC(=O)CC[C@H](NC(=O)CCCCCCCCCCCCCCCCCCC(=O)O)C(=O)O)NC(=O)[C@H](CC(C)C)NC(=O)[C@H](CC(N)=O)NC(=O)[C@H](CC(N)=O)NC(=O)[C@H](CO)NC(=O)[C@H](CO)NC(=O)[C@H](Cc1c[nH]cn1)NC(=O)[C@H](CCCN)NC(=O)[C@H](CC(C)C)NC(=O)[C@H](Cc1ccccc1)NC(=O)[C@H](CCC(=O)O)NC(=O)[C@H](C)NC(=O)[C@H](CC(C)C)NC(=O)[C@H](CCCNC(=N)N)NC(=O)[C@H](CCC(N)=O)NC(=O)[C@@H](NC(=O)[C@H](C)NC(=O)[C@@H]1CSSC[C@H](NC(=O)[C@@H](N)CCCNC(=N)N)C(=O)N[C@@H](CC(N)=O)C(=O)N[C@@H]([C@@H](C)O)C(=O)N[C@@H](C)C(=O)N[C@@H]([C@@H](C)O)C(=O)N1)[C@@H](C)O)C(=O)N[C@@H](CC(C)C)C(=O)N1CCC[C@H]1C(=O)N1CCC[C@H]1C(=O)N[C@H](C(=O)N[C@@H](CC(N)=O)C(=O)N[C@H](C(=O)NCC(=O)N[C@@H](CO)C(=O)N[C@@H](CC(N)=O)C(=O)N[C@H](C(=O)N1CCC[C@H]1C(N)=O)[C@@H](C)O)C(C)C)[C@@H](C)O` [PD046] (H-RCNTATCATQRLAEFL[Orn]HSSNNLK([γGlu-C20 diacid])PILPPTNVGSNTP-NH2; disulfide 2-7 (inferred); N-terminus assumed), for which the pEC50 at human amylin receptor was 8.78. For the same compound, in data set [1], the Dissolution property result was “Clear”, the Freeze storage property result is listed as “Clear” and the Freeze storage yield is reported as 101.35%.
For `CC[C@H](C)[C@H](NC(=O)[C@@H]1CCCN1C(=O)[C@H](CCCCNC(=O)CC[C@H](NC(=O)CCCCCCCCCCCCCCCCCCC(=O)O)C(=O)O)NC(=O)[C@H](CC(C)C)NC(=O)[C@H](CC(N)=O)NC(=O)[C@H](CC(N)=O)NC(=O)[C@H](CO)NC(=O)[C@H](CO)NC(=O)[C@H](Cc1c[nH]cn1)NC(=O)[C@H](CCCNC(=N)N)NC(=O)[C@H](CC(C)C)NC(=O)[C@H](Cc1ccccc1)NC(=O)[C@H](CC(=O)O)NC(=O)[C@H](C)NC(=O)[C@H](CC(C)C)NC(=O)[C@H](CCCNC(=N)N)NC(=O)[C@H](CCC(N)=O)NC(=O)[C@@H](NC(=O)[C@H](C)NC(=O)[C@@H]1CSSC[C@H](N)C(=O)N[C@@H](CC(N)=O)C(=O)N[C@@H]([C@@H](C)O)C(=O)N[C@@H](C)C(=O)N[C@@H]([C@@H](C)O)C(=O)N1)[C@@H](C)O)C(=O)N[C@@H](CC(C)C)C(=O)N1CCC[C@H]1C(=O)N1CCC[C@H]1C(=O)N[C@H](C(=O)N[C@@H](CC(N)=O)C(=O)N[C@H](C(=O)NCC(=O)N[C@@H](CO)C(=O)N[C@@H](CC(N)=O)C(=O)N[C@H](C(=O)N1CCC[C@H]1C(N)=O)[C@@H](C)O)C(C)C)[C@@H](C)O` [PD050] (H-CNTATCATQRLADFLRHSSNNLK([γGlu-C20 diacid])PILPPTNVGSNTP-NH2; disulfide 1-6 (inferred)), the pEC50 at human amylin receptor is 10.01. Also, in data set [1], the Dissolution property result is reported as “Clear”, the Freeze storage property entry is recorded as “Clear” and the Freeze storage yield came out at 99.66%.
As to `CC[C@H](C)[C@H](NC(=O)[C@@H]1CCCN1C(=O)CNC(=O)[C@H](CC(C)C)NC(=O)[C@H](CCCCNC(=O)COCCOCCNC(=O)COCCOCCNC(=O)CC[C@H](NC(=O)CCCCCCCCCCCCCCCCCCC(=O)O)C(=O)O)NC(=O)[C@H](CC(N)=O)NC(=O)[C@H](CO)NC(=O)[C@H](CO)NC(=O)[C@H](Cc1c[nH]cn1)NC(=O)[C@H](CCCNC(=N)N)NC(=O)[C@H](CC(C)C)NC(=O)[C@H](Cc1ccccc1)NC(=O)[C@H](CCC(=O)O)NC(=O)[C@H](C)NC(=O)[C@H](CC(C)C)NC(=O)[C@H](CCCNC(=N)N)NC(=O)[C@H](CCC(N)=O)NC(=O)[C@@H](NC(=O)[C@H](C)NC(=O)[C@@H]1CSSC[C@H](NC(=O)[C@@H](N)CCCNC(=N)N)C(=O)N[C@@H](CC(N)=O)C(=O)N[C@@H]([C@@H](C)O)C(=O)N[C@@H](C)C(=O)N[C@@H]([C@@H](C)O)C(=O)N1)[C@@H](C)O)C(=O)N[C@@H](CC(C)C)C(=O)N1CCC[C@H]1C(=O)N1CCC[C@H]1C(=O)N[C@H](C(=O)N[C@@H](CC(N)=O)C(=O)N[C@H](C(=O)NCC(=O)N[C@@H](CO)C(=O)N[C@@H](CC(N)=O)C(=O)N[C@H](C(=O)N1CCC[C@H]1C(N)=O)[C@@H](C)O)C(C)C)[C@@H](C)O` [PD002] (H-RCNTATCATQRLAEFLRHSSNK([AEEA-AEEA-γGlu-C20 diacid])LGPILPPTNVGSNTP-NH2; disulfide 2-7 (inferred); N-terminus assumed), the pEC50 on human amylin receptor is 9.92. Moreover, in data set [1], the Dissolution property result is “Clear” and the Freeze storage property result is “Clear”.
Turning to `CC[C@H](C)[C@H](NC(=O)[C@@H]1CCCN1C(=O)CNC(=O)[C@H](CC(C)C)NC(=O)[C@H](CC(N)=O)NC(=O)[C@H](CCCCNC(=O)CC[C@H](NC(=O)CCCCCCCCCCCCCCCCCCC(=O)O)C(=O)O)NC(=O)[C@H](CO)NC(=O)[C@H](CO)NC(=O)[C@H](Cc1c[nH]cn1)NC(=O)[C@H](CCCNC(=N)N)NC(=O)[C@H](CC(C)C)NC(=O)[C@H](Cc1ccccc1)NC(=O)[C@H](CCC(=O)O)NC(=O)[C@H](C)NC(=O)[C@H](CC(C)C)NC(=O)[C@H](CCCNC(=N)N)NC(=O)[C@H](CCC(N)=O)NC(=O)[C@@H](NC(=O)[C@H](C)NC(=O)[C@@H]1CSSC[C@H](NC(=O)[C@@H](N)CCCNC(=N)N)C(=O)N[C@@H](CC(N)=O)C(=O)N[C@@H]([C@@H](C)O)C(=O)N[C@@H](C)C(=O)N[C@@H]([C@@H](C)O)C(=O)N1)[C@@H](C)O)C(=O)N[C@@H](CC(C)C)C(=O)N1CCC[C@H]1C(=O)N1CCC[C@H]1C(=O)N[C@H](C(=O)N[C@@H](CC(N)=O)C(=O)N[C@H](C(=O)NCC(=O)N[C@@H](CO)C(=O)N[C@@H](CC(N)=O)C(=O)N[C@H](C(=O)N1CCC[C@H]1C(N)=O)[C@@H](C)O)C(C)C)[C@@H](C)O` [PD006] (H-RCNTATCATQRLAEFLRHSSK([γGlu-C20 diacid])NLGPILPPTNVGSNTP-NH2; disulfide 2-7 (inferred); N-terminus assumed), the pEC50 on human amylin receptor is 9.89. In data set [1], the Dissolution property result is “Clear” and the Freeze storage property result is reported as “Clear”.
With `CC[C@H](C)[C@H](NC(=O)[C@@H]1CCCN1C(=O)CNC(=O)[C@H](CCCCNC(=O)CC[C@H](NC(=O)CCCCCCCCCCCCCCCCCCC(=O)O)C(=O)O)NC(=O)[C@H](CC(N)=O)NC(=O)[C@H](CC(N)=O)NC(=O)[C@H](CO)NC(=O)[C@H](CO)NC(=O)[C@H](Cc1c[nH]cn1)NC(=O)[C@H](CCCNC(=N)N)NC(=O)[C@H](CC(C)C)NC(=O)[C@H](Cc1ccccc1)NC(=O)[C@H](CCC(=O)O)NC(=O)[C@H](C)NC(=O)[C@H](CC(C)C)NC(=O)[C@H](CCCNC(=N)N)NC(=O)[C@H](CCC(N)=O)NC(=O)[C@@H](NC(=O)[C@H](C)NC(=O)[C@@H]1CSSC[C@H](NC(=O)[C@@H](N)CCCNC(=N)N)C(=O)N[C@@H](CC(N)=O)C(=O)N[C@@H]([C@@H](C)O)C(=O)N[C@@H](C)C(=O)N[C@@H]([C@@H](C)O)C(=O)N1)[C@@H](C)O)C(=O)N[C@@H](CC(C)C)C(=O)N1CCC[C@H]1C(=O)N1CCC[C@H]1C(=O)N[C@H](C(=O)N[C@@H](CC(N)=O)C(=O)N[C@H](C(=O)NCC(=O)N[C@@H](CO)C(=O)N[C@@H](CC(N)=O)C(=O)N[C@H](C(=O)N1CCC[C@H]1C(N)=O)[C@@H](C)O)C(C)C)[C@@H](C)O` [PD008] (H-RCNTATCATQRLAEFLRHSSNNK([γGlu-C20 diacid])GPILPPTNVGSNTP-NH2; disulfide 2-7 (inferred)), the pEC50 on human amylin receptor is 9.55. In data set [1], the Dissolution property result is listed as “Clear” and the Freeze storage property entry is “Clear”.

The values above are taken from patent US20260166128A1, “HUMAN AMYLIN ANALOG, AND DERIVATIVE THEREOF AND USE THEREOF” (priority 2022, published 2026).
